“And” between values parts separate entries of the source, which are not always exact repeats. Identical values can stand only once.
Assays:
KDM5B = KDM5B (Homo sapiens, UniProt Q9UGL1); experiment: KDM5B alphascreen activity assay; type: biochemical; details: Table 1, KDM5B alphascreen activity assay
Protocol: All subsequent steps were carried out in assay buffer (50 mM HEPES, pH 7.5, 0.1% (wt/vol) BSA and 0.01% (vol/vol) Tween-20). […] The final concentration of DMSO was 1%. […] Data were normalized to the (no-enzyme) control, and the IC50 values were determined via nonlinear regression curve fit using GraphPad Prism 7.

[1] = system: MYC target genes in MM.1S cells; experiment: Gene expression profile by RNA-seq with gene set enrichment analysis in MM.1S cells; type: cell-based, human; details: RNA-seq after treatment in MM.1S cells
Excerpt: To clarify the molecular mechanism whereby KDM5A mediates MM cell growth, the gene expression profile using RNA-seq after the treatment with pck82 in MM.1S cells was examined.

luciferized molp8 cells = experiment: In vivo mouse study, bioluminescence imaging (BLI) of luciferized molp8 cells; design: species or system Mice; reference not given here; details: one individual mouse (cage, EP)
Protocol: Mice were injected intravenously with luciferized molp8 cells. Half million cells per mice. After 1 week, the tumor was observed using bioluminescence imaging (BLI). The normalized total flux was measured over 17 days (FIG. 12; Table 5) Mice were randomized into control and treatment. Treatment lasted for 21 days. Animals with 15% weight loss was terminated.

H3K4me3 mark = experiment: ChIP-seq analysis of H3K4me3 mark; type: cell-based

Sequence of KDM5B (Q9UGL1 whole entry): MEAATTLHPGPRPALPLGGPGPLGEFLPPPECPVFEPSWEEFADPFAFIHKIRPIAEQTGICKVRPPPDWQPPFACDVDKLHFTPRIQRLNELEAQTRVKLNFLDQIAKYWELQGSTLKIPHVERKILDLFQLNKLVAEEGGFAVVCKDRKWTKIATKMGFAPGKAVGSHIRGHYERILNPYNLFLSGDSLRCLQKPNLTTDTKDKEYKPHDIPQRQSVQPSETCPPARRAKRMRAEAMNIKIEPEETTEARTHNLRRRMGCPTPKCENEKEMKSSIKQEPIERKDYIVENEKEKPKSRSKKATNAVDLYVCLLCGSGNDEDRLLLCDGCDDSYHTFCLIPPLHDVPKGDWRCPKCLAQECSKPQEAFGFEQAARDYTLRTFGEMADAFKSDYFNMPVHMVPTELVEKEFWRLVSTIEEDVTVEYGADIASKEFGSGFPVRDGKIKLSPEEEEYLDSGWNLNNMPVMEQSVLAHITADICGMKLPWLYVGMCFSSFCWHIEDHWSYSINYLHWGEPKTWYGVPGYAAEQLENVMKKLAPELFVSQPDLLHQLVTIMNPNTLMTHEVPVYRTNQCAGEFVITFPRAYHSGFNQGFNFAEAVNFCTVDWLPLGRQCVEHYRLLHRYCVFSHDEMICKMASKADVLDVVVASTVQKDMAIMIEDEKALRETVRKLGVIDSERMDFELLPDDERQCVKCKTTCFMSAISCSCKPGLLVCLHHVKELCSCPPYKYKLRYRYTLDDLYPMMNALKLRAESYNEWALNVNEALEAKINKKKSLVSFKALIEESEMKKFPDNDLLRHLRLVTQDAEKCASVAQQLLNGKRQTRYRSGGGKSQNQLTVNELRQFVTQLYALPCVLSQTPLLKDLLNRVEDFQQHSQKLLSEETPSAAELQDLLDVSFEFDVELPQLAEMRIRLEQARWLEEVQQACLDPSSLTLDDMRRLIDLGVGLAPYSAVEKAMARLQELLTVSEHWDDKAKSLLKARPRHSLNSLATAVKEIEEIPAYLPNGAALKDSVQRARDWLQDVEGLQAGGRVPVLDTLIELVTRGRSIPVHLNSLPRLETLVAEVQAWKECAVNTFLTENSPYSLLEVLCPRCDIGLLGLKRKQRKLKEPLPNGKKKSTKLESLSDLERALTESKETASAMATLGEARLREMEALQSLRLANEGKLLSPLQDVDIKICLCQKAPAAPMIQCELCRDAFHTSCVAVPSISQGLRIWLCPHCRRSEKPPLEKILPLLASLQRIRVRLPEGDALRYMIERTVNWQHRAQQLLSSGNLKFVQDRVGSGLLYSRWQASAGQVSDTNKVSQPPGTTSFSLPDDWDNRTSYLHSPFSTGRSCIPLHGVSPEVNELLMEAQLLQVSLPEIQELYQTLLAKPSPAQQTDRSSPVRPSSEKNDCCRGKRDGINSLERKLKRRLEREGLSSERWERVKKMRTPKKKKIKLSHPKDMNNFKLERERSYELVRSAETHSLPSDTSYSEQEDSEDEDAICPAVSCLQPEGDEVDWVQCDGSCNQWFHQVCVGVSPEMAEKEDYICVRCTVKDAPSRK

SMILES	IC50 (KDM5B) [µM]	expression of MYC target genes (gene set enrichment analysis) [1]	Normalized total flux from BLI imaging (luciferized molp8 cells; Day 0)	Normalized total flux from BLI imaging (luciferized molp8 cells; Day 3)	Normalized total flux from BLI imaging (luciferized molp8 cells; Day 7)	Normalized total flux from BLI imaging (luciferized molp8 cells; Day 10)	Normalized total flux from BLI imaging (luciferized molp8 cells; Day 14)	Normalized total flux from BLI imaging (luciferized molp8 cells; Day 17)	Normalized total flux from BLI imaging (luciferized molp8 cells; Day 21)	H3K4me3 mark, global (H3K4me3 mark; ChIP-seq after treatment)	H3K4me3 mark at the loci of MYC and its targets (H3K4me3 mark; ChIP-seq, targets whose expression is down-regulated after treatment)
CC(C)c1c(-c2ccccc2)[nH]c2c(C#N)cnn2c1=O [CPI455]	7.92										
CCN(CCN(C)C)C(=O)CNCc1cc(C(=O)Oc2ccc(OC(C)C)cc2OC(C)C)ccn1 [PCK82]		decreased expression of MYC target genes	1	3.764 and 4.5 and 4.255 and 3.625 and 2.035 and 2.296 and 3.238 and 0.2149 and 0.3339	0.5646 and 9.722 and 8.546 and 8.656 and 13.51 and 1.677 and 8.169 and 0.2301 and 39.37	6.63 and 19.33 and 0.422 and 44.375 and 23.38 and 25.97 and 24.97 and 1.029 and 6.22	191.7 and 165.6 and 135.1 and 93.75 and 380.3 and 314.2 and 275.1 and 75.66 and 5.654	306.3 and 4.861 and 358.2 and 465.625 and 258.8 and 133.2 and 277.2 and 359 and 565.6	45 and 3.404 and 435.5 and 58.66 and 1309 and 1224 and 847.4 and 121.6 and 1078	globally increased H3K4me3 mark	did not increase this mark
